Reference: patent US12569453B2, “Use of tapinarof for the treatment of atopic dermatitis” (Dermavant Sciences GmbH, priority 2018, dated 2026)

Assay: Phase II AD study: plasma PK samples
Format: in vivo, human
Conditions: for concentration at 1 week: Week 1; for concentration at 2 week: Week 2; for concentration at 4 week: Week 4; for concentration at 8 week: Week 8
Protocol: Pharmacokinetics: A total of 5 blood samples for PK analysis of GSK2894512 were collected from each subject over the clinic visits at Weeks 1, 2, 4, 8, and 12. Plasma analysis was performed under the management of Bioanalytical Science and Toxicokinetics, DMPK, GSK.
Pharmacokinetics: Subjects with atopic dermatitis, BSA involvement >5% and <35%, excluding scalp, and Baseline IGA score of >3 at Baseline, participated in this study in which 2 concentrations of Tapinarof cream (0.5% and 1%) and a vehicle control were evaluated following application to all AD lesions (except on the scalp) once or twice daily for 12 weeks.
A total of 5 blood samples for PK analysis of Tapinarof were collected from each subject at the following clinic visits: Weeks 1, 2, 4, 8, and 12. Subjects were advised to provide PK samples during each of the following 3 time windows: 1 to 3 hours post application, 3 to 6 hours post application, and 6 to 12 hours post application.

[1] = human, plasma, topical, 0.5 % cream BID, Subject 111301, 0.5% BID
[2] = human, plasma, topical, 0.5 % cream BID, Subject 316851, 0.5% BID
[3] = human, plasma, topical, 1 % cream BID, Subject 110406, 1% BID
[4] = human, plasma, topical, 1 % cream BID, Subject 110604, 1% BID

SMILES: CC(C)c1c(O)cc(/C=C/c2ccccc2)cc1O [Tapinarof, 3,5-Dihydroxy-4-isopropyl-trans-stilbene]
- subjects with plasma concentration >0.84 ng/mL (minipig NOAEL Cmax) (0.5% BID): 4 subjects
- subjects with plasma concentration >0.84 ng/mL (minipig NOAEL Cmax) (0.5% QD): 2 subjects
- subjects with plasma concentration >0.84 ng/mL (minipig NOAEL Cmax) (1% BID): 5 subjects
- subjects with plasma concentration >0.84 ng/mL (minipig NOAEL Cmax) (1% QD): 2 subjects
- subjects with plasma concentration >0.84 ng/mL (minipig NOAEL Cmax) (all Tapinarof groups, out of 247): 13 subjects
- concentration at 1 week [1]: 6.09 ng/mL
- concentration at 2 week [1]: 0.438 ng/mL
- concentration at 4 week [1]: 0.649 ng/mL
- concentration at 1 week [2]: 0.362 ng/mL
- concentration at 2 week [2]: 0.106 ng/mL
- concentration at 8 week [2]: 1.93 ng/mL
- concentration at 1 week [3]: 0.233 ng/mL
- concentration at 2 week [3]: 0.347 ng/mL
- concentration at 4 week [3]: 4.9 ng/mL
- concentration at 8 week [3]: 0.514 ng/mL
- concentration at 1 week [4]: 1.48 ng/mL
- concentration at 2 week [4]: 0.266 ng/mL
- concentration at 4 week [4]: 0.43 ng/mL
- concentration at 8 week [4]: 0.0716 ng/mL
- concentration at 12 week (human, plasma, topical, 1 % cream BID, Subject 110604, 1% BID, Week 12): 0.311 ng/mL
- concentration at 2 week (human, plasma, topical, 1 % cream BID, Subject 316651, 1% BID): 181 ng/mL
- quantifiable plasma samples (of 753 samples from subjects on active treatment, LLOQ 0.04 ng/mL): 348
